Data set [1] in a line: Non-specific binding to ultrafiltration filter. The format is physicochemical. The following applies: LC-MS/MS. The protocol: (§1) The binding of polymyxin B to plasma proteins was determined via ultrafiltration. Polymyxins have a tendency to non-specifically bind to different kinds of material, including ultrafiltration filters. Thus, to correct for polymyxin B loss on the filter, an experiment was performed in which ultrafiltrated (UF) phosphate buffer was spiked with multiple polymyxin B concentrations (ranging from 0.75 to 8 mg/L) and subsequently concentrations were measured. […] Using this relationship, the non-specific binding (NSB) for each measured polymyxin B UF concentration was calculated. Correction for the measured polymyxin B UF concentration using this NSB value was according to the following formula: polymyxin B UF Corrected Concentration = Measured polymyxin B UF Concentration × (1−NSB).
(§2) Polymyxin B concentrations in plasma, BAL and ultrafiltrates were determined by a validated LC-MS/MS method,[18] with a lower limit of quantification (LOQ) of 0.2 mg/L for plasma and 0.05 mg/L for BAL fluid and ultrafiltrates. […] The residues were dissolved in 0.1 mL of 0.1% formic acid in water and analysed by LC-MS/MS. […] Polymyxin B was analysed on an XBridge C18 column (5 µm, 2.1 × 150 mm; Waters). […] Calibration curves of polymyxin B ranged from 0.1 to 10 mg/L for plasma and ultrafiltrates, and were quantified with a quadratic regression mode. […]

The subject of data set [2] is plasma proteins. The following applies: clinical studies; cited from earlier work. The protocol:
A previously published population PK model[19] and Monte Carlo simulations was used to estimate the fAUCs of 5000 patients treated with 200 mg q24h (MicLab 2.71) taking into account protein-binding rates ranging from 36% to 98% as previously reported.[20–23] The PTA was calculated for isolates with MICs ranging from 0.25 to 4 mg/L. || In clinical studies, the protein binding of polymyxin B is much higher than reported in mice, with protein binding in plasma up to 99% for polymyxin B.[22],[26],[27] This applies to colistin as well.[5],[28] Therefore, the PK/PD targets based on the unbound fraction are necessary for translating PK/PD data of polymyxin B to the clinic.

For data set [3], the system named is plasma proteins. The following applies: mouse, spiked pooled plasma, ultracentrifugation; cited from earlier work. An excerpt: Protein binding of polymyxin B is known to be high. However, a difference was found between the current study (unbound fraction 20%) compared with previous studies (8.6% for polymyxin B,[8] 8.4% for colistin[5]), which affects the PTA. In the present study, ultrafiltration was used for determining the unbound fraction, whilst ultracentrifugation was used in the other studies. With the ultrafiltration method, correction for the NSB to the ultrafiltration membranes was needed. In addition, differences in mouse plasma used for determination of polymyxin B protein binding may (partly) explain the ...

The test system of data set [4] is plasma proteins. The data set is described as follows: Plasma protein binding by ultrafiltration. The format is in vitro ADME. The following applies: plasma of infected mice treated with polymyxin B, corrected for non-specific binding, LC-MS/MS, mean ± SD, no concentration dependency. The protocol: as §1, §2

Each structure is given as a SMILES string. Counter-ions that a name gives are not always drawn. Bridge positions count the residues as written; N and C are the ends. Square brackets hold non-standard residues; d marks the D form. Peptide text beside a SMILES is read from it. * marks the point of attachment. X1 = CC[C@H](C)CCCCC(=O)*; Dab = NCC[C@H](N)C(=O)O

These results are taken from PMC10377753, “Pharmacokinetic and pharmacodynamic properties of polymyxin B in Escherichia coli and Klebsiella pneumoniae murine infection models” (Journal of Antimicrobial Chemotherapy, 2023).

For the compound `CC[C@H](C)CCCCC(=O)N[C@@H](CCN)C(=O)N[C@H](C(=O)N[C@@H](CCN)C(=O)N[C@H]1CCNC(=O)[C@H]([C@@H](C)O)NC(=O)[C@H](CCN)NC(=O)[C@H](CCN)NC(=O)[C@H](CC(C)C)NC(=O)[C@@H](Cc2ccccc2)NC(=O)[C@H](CCN)NC1=O)[C@@H](C)O` [polymyxin B, Polymyxin B sulphate salt] (X1-[Dab]T[Dab][Dab][Dab][dF]L[Dab][Dab]T; lactam 4-C), the “Non-specific binding (NSB)” value in data set [1] (phosphate buffer spiked at 0.75 mg/L) was 77% ± 8.3%; in data set [1] (phosphate buffer spiked at 8 mg/L) it was 20% ± 0.6%. The “Protein binding in plasma” value in data set [2] is “up to 99%”. For the same compound, the Unbound fraction in data set [3] is given as 8.6%. The “%fu (percent fraction unbound)” value in data set [4] was 20% ± 4.0%.
